Assay results published in ChEMBL document CHEMBL3112480, “γ-Alkylidene-γ-lactones and isobutylpyrrol-2(5H)-ones analogues to rubrolides as inhibitors of biofilm formation by gram-positive and gram-negative bacteria” (Bioorg Med Chem Lett, 2014).
In brackets after ≈: the same amount, converted by molar mass.

What was measured:
[1] = test system: Staphylococcus epidermidis; assay: Antibacterial activity against Staphylococcus epidermidis ATCC 35547 assessed as effect on planktonic growth at 0.17 ug/ml after 20 hrs relative to control; format: functional
[2] = test system: Staphylococcus epidermidis; assay: Antibacterial activity against Staphylococcus epidermidis ATCC 35547 assessed as effect on planktonic growth at 1.37 ug/ml after 20 hrs relative to control; format: functional
Staphylococcus aureus [3] = assay: Antibacterial activity against Staphylococcus aureus ATCC 25923 assessed as effect on planktonic growth at 0.68 ug/ml after 20 hrs relative to control; format: functional
Staphylococcus aureus [4] = assay: Antibacterial activity against Staphylococcus aureus ATCC 25923 assessed as effect on planktonic growth at 5.5 ug/ml after 20 hrs relative to control; format: functional
Staphylococcus aureus [5] = assay: Antibacterial activity against Staphylococcus aureus ATCC 25923 assessed as effect on planktonic growth at 2.73 ug/ml after 20 hrs relative to control; format: functional
[6] = test system: Staphylococcus epidermidis; assay: Antibacterial activity against Staphylococcus epidermidis ATCC 35547 assessed as effect on planktonic growth at 43.8 ug/ml after 20 hrs relative to control; format: functional
Staphylococcus aureus [7] = assay: Antibacterial activity against Staphylococcus aureus ATCC 25923 assessed as effect on planktonic growth at 0.34 ug/ml after 20 hrs relative to control; format: functional
Pseudomonas aeruginosa [8] = assay: Antibacterial activity against Pseudomonas aeruginosa ATCC 27853 assessed as inhibition of biofilm formation after 20 hrs by crystal-violet staining method; format: functional, organism-based
Streptococcus mutans [9] = assay: Antibacterial activity against Streptococcus mutans ATCC 25175 assessed as effect on planktonic growth at 5.5 ug/ml after 20 hrs relative to control; format: functional
[10] = test system: Staphylococcus epidermidis; assay: Antibacterial activity against Staphylococcus epidermidis ATCC 35547 assessed as effect on planktonic growth at 87.5 ug/ml after 20 hrs relative to control; format: functional
[11] = test system: Staphylococcus epidermidis; assay: Antibacterial activity against Staphylococcus epidermidis ATCC 35547 assessed as effect on planktonic growth at 5.5 ug/ml after 20 hrs relative to control; format: functional
Streptococcus mutans [12] = assay: Antibacterial activity against Streptococcus mutans ATCC 25175 assessed as effect on planktonic growth at 43.8 ug/ml after 20 hrs relative to control; format: functional
Pseudomonas aeruginosa [13] = assay: Antibacterial activity against Pseudomonas aeruginosa ATCC 27853 assessed as effect on planktonic growth at 1.37 ug/ml after 20 hrs relative to control; format: functional
[14] = test system: Staphylococcus epidermidis; assay: Antibacterial activity against Staphylococcus epidermidis ATCC 35547 assessed as effect on planktonic growth at 0.34 ug/ml after 20 hrs relative to control; format: functional
Pseudomonas aeruginosa [15] = assay: Antibacterial activity against Pseudomonas aeruginosa ATCC 27853 assessed as effect on planktonic growth at 5.5 ug/ml after 20 hrs relative to control; format: functional
Staphylococcus aureus [16] = assay: Antibacterial activity against Staphylococcus aureus ATCC 25923 assessed as effect on planktonic growth at 87.5 ug/ml after 20 hrs relative to control; format: functional
Streptococcus mutans [17] = assay: Antibacterial activity against Streptococcus mutans ATCC 25175 assessed as effect on planktonic growth at 0.34 ug/ml after 20 hrs relative to control; format: functional
Pseudomonas aeruginosa [18] = assay: Antibacterial activity against Pseudomonas aeruginosa ATCC 27853 assessed as effect on planktonic growth at 0.68 ug/ml after 20 hrs relative to control; format: functional
Staphylococcus aureus [19] = assay: Antibacterial activity against Staphylococcus aureus ATCC 25923 assessed as effect on planktonic growth at 10.9 ug/ml after 20 hrs relative to control; format: functional
[20] = test system: Staphylococcus epidermidis; assay: Antibacterial activity against Staphylococcus epidermidis ATCC 35547 assessed as effect on planktonic growth at 10.9 ug/ml after 20 hrs relative to control; format: functional
Pseudomonas aeruginosa [21] = assay: Antibacterial activity against Pseudomonas aeruginosa ATCC 27853 assessed as effect on planktonic growth at 43.8 ug/ml after 20 hrs relative to control; format: functional
[22] = test system: Staphylococcus epidermidis; assay: Antibacterial activity against Staphylococcus epidermidis ATCC 35547 assessed as inhibition of biofilm formation after 20 hrs by crystal-violet staining method; format: functional, organism-based; details: for IC50: ATCC 35547, 20 h
Pseudomonas aeruginosa [23] = assay: Antibacterial activity against Pseudomonas aeruginosa ATCC 27853 assessed as effect on planktonic growth at 0.34 ug/ml after 20 hrs relative to control; format: functional
Streptococcus mutans [24] = assay: Antibacterial activity against Streptococcus mutans ATCC 25175 assessed as effect on planktonic growth at 2.73 ug/ml after 20 hrs relative to control; format: functional
Streptococcus mutans [25] = assay: Antibacterial activity against Streptococcus mutans ATCC 25175 assessed as effect on planktonic growth at 87.5 ug/ml after 20 hrs relative to control; format: functional
Pseudomonas aeruginosa [26] = assay: Antibacterial activity against Pseudomonas aeruginosa ATCC 27853 assessed as effect on planktonic growth at 87.5 ug/ml after 20 hrs relative to control; format: functional
Streptococcus mutans [27] = assay: Antibacterial activity against Streptococcus mutans ATCC 25175 assessed as effect on planktonic growth at 21.9 ug/ml after 20 hrs relative to control; format: functional
Pseudomonas aeruginosa [28] = assay: Antibacterial activity against Pseudomonas aeruginosa ATCC 27853 assessed as effect on planktonic growth at 10.9 ug/ml after 20 hrs relative to control; format: functional
Pseudomonas aeruginosa [29] = assay: Antibacterial activity against Pseudomonas aeruginosa ATCC 27853 assessed as effect on planktonic growth at 0.17 ug/ml after 20 hrs relative to control; format: functional
Staphylococcus aureus [30] = assay: Antibacterial activity against Staphylococcus aureus ATCC 25923 assessed as effect on planktonic growth at 43.8 ug/ml after 20 hrs relative to control; format: functional
Staphylococcus aureus [31] = assay: Antibacterial activity against Staphylococcus aureus ATCC 25923 assessed as effect on planktonic growth at 0.17 ug/ml after 20 hrs relative to control; format: functional
[32] = test system: Staphylococcus epidermidis; assay: Antibacterial activity against Staphylococcus epidermidis ATCC 35547 assessed as effect on planktonic growth at 2.73 ug/ml after 20 hrs relative to control; format: functional
[33] = test system: Staphylococcus epidermidis; assay: Antibacterial activity against Staphylococcus epidermidis ATCC 35547 assessed as effect on planktonic growth at 21.9 ug/ml after 20 hrs relative to control; format: functional
Streptococcus mutans [34] = assay: Antibacterial activity against Streptococcus mutans ATCC 25175 assessed as effect on planktonic growth at 1.37 ug/ml after 20 hrs relative to control; format: functional
Pseudomonas aeruginosa [35] = assay: Antibacterial activity against Pseudomonas aeruginosa ATCC 27853 assessed as effect on planktonic growth at 21.9 ug/ml after 20 hrs relative to control; format: functional
Pseudomonas aeruginosa [36] = assay: Antibacterial activity against Pseudomonas aeruginosa ATCC 27853 assessed as effect on planktonic growth at 2.73 ug/ml after 20 hrs relative to control; format: functional
Staphylococcus aureus [37] = assay: Antibacterial activity against Staphylococcus aureus ATCC 25923 assessed as effect on planktonic growth at 21.9 ug/ml after 20 hrs relative to control; format: functional
Streptococcus mutans [38] = assay: Antibacterial activity against Streptococcus mutans ATCC 25175 assessed as effect on planktonic growth at 0.68 ug/ml after 20 hrs relative to control; format: functional
[39] = test system: Staphylococcus epidermidis; assay: Antibacterial activity against Staphylococcus epidermidis ATCC 35547 assessed as effect on planktonic growth at 0.68 ug/ml after 20 hrs relative to control; format: functional
Streptococcus mutans [40] = assay: Antibacterial activity against Streptococcus mutans ATCC 25175 assessed as effect on planktonic growth at 0.17 ug/ml after 20 hrs relative to control; format: functional
Streptococcus mutans [41] = assay: Antibacterial activity against Streptococcus mutans ATCC 25175 assessed as effect on planktonic growth at 10.9 ug/ml after 20 hrs relative to control; format: functional
Staphylococcus aureus [42] = assay: Antibacterial activity against Staphylococcus aureus ATCC 25923 assessed as effect on planktonic growth at 1.37 ug/ml after 20 hrs relative to control; format: functional

Q: `COc1ccccc1C1=C(Br)C(=O)N(CC(C)C)/C1=C\c1ccc(C(F)(F)F)cc1` was tested. Which Activity [1] did it give?
A: -22.1%

Q: And the Activity [2]?
A: -17.9%

Q: And the Activity (Staphylococcus aureus [3])?
A: -18.1%

Q: And the Activity (Staphylococcus aureus [4])?
A: -33.5%

Q: And the Activity (Staphylococcus aureus [5])?
A: -35.6%

Q: And the Activity [6]?
A: 37.8%

Q: And the Activity (Staphylococcus aureus [7])?
A: -14.7%

Q: And the inhibition (Pseudomonas aeruginosa [8])?
A: Dose-dependent effect

Q: And the Activity (Streptococcus mutans [9])?
A: -3%

Q: And the Activity [10]?
A: -6.3%

Q: What about the Activity [11] of the same compound?
A: -14.8%

Q: What about the Activity (Streptococcus mutans [12]) of the same compound?
A: -13.5%

Q: And the Activity (Pseudomonas aeruginosa [13])?
A: -5.9%

Q: And the Activity [14]?
A: -17%

Q: What about the Activity (Pseudomonas aeruginosa [15]) of the same compound?
A: -1.7%

Q: And the Activity (Staphylococcus aureus [16])?
A: 1.8%

Q: And the Activity (Streptococcus mutans [17])?
A: 0.6%

Q: And the Activity (Pseudomonas aeruginosa [18])?
A: 0.1%

Q: What about the Activity (Staphylococcus aureus [19]) of the same compound?
A: -33.8%

Q: What about the Activity [20] of the same compound?
A: 6.6%

Q: And the Activity (Pseudomonas aeruginosa [21])?
A: 44%

Q: What about the inhibition [22] of the same compound?
A: Dose-dependent effect

Q: And the IC50 [22]?
A: 23 µg/mL (≈ 47.9 µM)

Q: What about the Activity (Pseudomonas aeruginosa [23]) of the same compound?
A: -1.7%

Q: And the Activity (Streptococcus mutans [24])?
A: 14%

Q: What about the Activity (Streptococcus mutans [25]) of the same compound?
A: 3.6%

Q: What about the Activity (Pseudomonas aeruginosa [26]) of the same compound?
A: 35.2%

Q: What about the Activity (Streptococcus mutans [27]) of the same compound?
A: -11.6%

Q: And the Activity (Pseudomonas aeruginosa [28])?
A: 35.6%

Q: What about the Activity (Pseudomonas aeruginosa [29]) of the same compound?
A: -2.1%

Q: What about the Activity (Staphylococcus aureus [30]) of the same compound?
A: -15.4%

Q: What about the Activity (Staphylococcus aureus [31]) of the same compound?
A: -5.8%

Q: What about the Activity [32] of the same compound?
A: -21.2%

Q: And the Activity [33]?
A: 38.7%

Q: What about the Activity (Streptococcus mutans [34]) of the same compound?
A: 10.7%

Q: What about the Activity (Pseudomonas aeruginosa [35]) of the same compound?
A: 53.2%

Q: What about the Activity (Pseudomonas aeruginosa [36]) of the same compound?
A: -9.2%

Q: And the Activity (Staphylococcus aureus [37])?
A: -29.3%

Q: And the Activity (Streptococcus mutans [38])?
A: 5.5%

Q: What about the Activity [39] of the same compound?
A: -13.2%

Q: And the Activity (Streptococcus mutans [40])?
A: 0.3%

Q: What about the Activity (Streptococcus mutans [41]) of the same compound?
A: -12.9%

Q: And the Activity (Staphylococcus aureus [42])?
A: -30.9%

Q: How did the Activity [1] turn out when `COc1ccccc1C1=C(Br)C(=O)O/C1=C\c1ccc(C(F)(F)F)cc1` was run?
A: -12.1%

Q: What about the Activity [2] of the same compound?
A: 2.9%

Q: And the Activity (Staphylococcus aureus [3])?
A: -2.3%

Q: And the Activity (Staphylococcus aureus [4])?
A: 9.9%

Q: What about the Activity (Staphylococcus aureus [5]) of the same compound?
A: 6.6%

Q: What about the Activity [6] of the same compound?
A: 30.7%

Q: And the Activity (Staphylococcus aureus [7])?
A: -2%

Q: What about the inhibition (Pseudomonas aeruginosa [8]) of the same compound?
A: Dose-dependent effect

Q: And the IC50 (Pseudomonas aeruginosa [8]; ATCC 27853, 20 h)?
A: > 87.5 µg/mL

Q: What about the Activity (Streptococcus mutans [9]) of the same compound?
A: -4.8%

Q: And the Activity [10]?
A: 14.7%

Q: And the Activity [11]?
A: -9.1%

Q: What about the Activity (Streptococcus mutans [12]) of the same compound?
A: 21.5%

Q: What about the Activity (Pseudomonas aeruginosa [13]) of the same compound?
A: -5.7%

Q: And the Activity [14]?
A: -14.8%

Q: What about the Activity (Pseudomonas aeruginosa [15]) of the same compound?
A: 7.9%

Q: And the Activity (Staphylococcus aureus [16])?
A: 81.2%

Q: And the Activity (Streptococcus mutans [17])?
A: 1.1%

Q: What about the Activity (Pseudomonas aeruginosa [18]) of the same compound?
A: -1.3%

Q: And the Activity (Staphylococcus aureus [19])?
A: 9.7%

Q: What about the Activity [20] of the same compound?
A: 10.3%

Q: And the Activity (Pseudomonas aeruginosa [21])?
A: 34.3%

Q: And the inhibition [22]?
A: Dose-dependent effect

Q: And the IC50 [22]?
A: > 87.5 µg/mL

Q: And the Activity (Pseudomonas aeruginosa [23])?
A: -0.4%

Q: What about the Activity (Streptococcus mutans [24]) of the same compound?
A: -4%

Q: And the Activity (Streptococcus mutans [25])?
A: 58.9%

Q: What about the Activity (Pseudomonas aeruginosa [26]) of the same compound?
A: 15.1%

Q: And the Activity (Streptococcus mutans [27])?
A: 0.6%

Q: What about the Activity (Pseudomonas aeruginosa [28]) of the same compound?
A: 49.9%

Q: And the Activity (Pseudomonas aeruginosa [29])?
A: -1.3%

Q: And the Activity (Staphylococcus aureus [30])?
A: 47.3%

Q: What about the Activity (Staphylococcus aureus [31]) of the same compound?
A: -3.6%

Q: What about the Activity [32] of the same compound?
A: 12.9%

Q: And the Activity [33]?
A: 18.7%

Q: What about the Activity (Streptococcus mutans [34]) of the same compound?
A: -6.5%

Q: And the Activity (Pseudomonas aeruginosa [35])?
A: 58%

Q: And the Activity (Pseudomonas aeruginosa [36])?
A: -7%

Q: What about the Activity (Staphylococcus aureus [37]) of the same compound?
A: 26.7%

Q: What about the Activity (Streptococcus mutans [38]) of the same compound?
A: -1.7%

Q: What about the Activity [39] of the same compound?
A: -16.5%

Q: What about the Activity (Streptococcus mutans [40]) of the same compound?
A: -3.1%

Q: What about the Activity (Streptococcus mutans [41]) of the same compound?
A: -9.3%

Q: What about the Activity (Staphylococcus aureus [42]) of the same compound?
A: -0.5%
